In brackets after ≈: the same amount, converted by molar mass. Where two headings read alike, the source gives them in different places.
Experiments:
S. aureus Newman = assay: Minimal inhibitory concentration (MIC), double-dilution in broth, OD600; type: cell-based, Staphylococcus aureus Newman; details: unit assumed
Description: (§1) In short, a stock solution of 5 mg/mL of HKIs in DMSO was made. This stock was diluted to 50 µg/mL in broth in a 96 well plate. Dilutions were made (factor 2) directly in the plate with a multi-channel pipet. Bacteria cultured in suspension overnight were then added to the plate (except negative control) and the plate was incubated for 24 hours. After 24 hours the OD600 was measured using a spectrophotometer. A positive control (with bacteria, without HKI) was also measured on each plate.
Bacterial strains used in this study for antibacterial susceptibility testing (Table S2) were propagated using standard microbiological procedures. Minimal inhibitory concentrations (MICs) were determined following a standard double-dilution method (42), 73. […] For M. marinum, MICs were determined in Middlebrook 7H9 broth (Difco) and MICs were determined after 3 days incubation at 30 °C.
(§2) Grow the bacterial colonies to be tested from single colonies on an agar plate in LB broth or suitable bacterial growth medium overnight at 37°C. Prepare a 5 mg/mL stock solution of compounds to be tested in DMSO. One 96-well plate per bacterial strain was prepared. First, put 50 uL of medium to each well. Add 48 µL of medium to all wells in row A. Pipet 2 µL of antimicrobial master stock into the top well (row A). Beware, the antimicrobial concentration will be diluted 2x after adding the bacterial culture. Total volume in each well will be 100 µL. In A11, pipet 2 µL of DMSO. Make a serial dilution from row A to row H, pipetting 50 µL from the previous row into the new one. Mix well by pipetting up and down. Discard the last 50 µL so that there is 50 µl in each well In a clean, new plastic pipetting cup, dilute the overnight bacterial culture 100 times. Add 100 µL of bacterial overnight culture to 9900 µL of medium. Mix the suspension well. Once the serial dilutions are complete for all antimicrobial compounds, add 50 µL of diluted overnight bacterial culture to each well (except column 12). Mix by pipetting or put the plate on the shaker. Per 2 plates, close with parafilm around the edges and place in the incubator overnight. After overnight culturing, measure bacterial growth on the SpectraMax. The lowest concentration where no growth is observed is the MIC. To determine the MIB pipette 5 µL from each well of the 96 well plate where now growth was observed on to an LB agar plate, without antimicrobial. Put the plates in the incubator to grow overnight. The minimal concentration where no growth can be seen on the agar plate is the MBC.

P. multocida = assay: as above; type: cell-based, Pasteurella multocida; details: unit assumed
Description: as §1, with “each plate. The MICs were not determined in duplo/triplicate in the same experiment, however, the MICs of several HKIs were measured in different experiments and no major differences (max. 1x dilution) were found in the MICs between the experiments.” for “each plate.”
(§3) Bacterial strains used in this study for antibacterial susceptibility testing (Table S2) were propagated using standard microbiological procedures. Minimal inhibitory concentrations (MICs) were determined following a standard double-dilution method (42), 73. MICs were recorded as the lowest concentration of the compound where no visible growth was observed. After plating the dilutions around the MIC or growing them in fresh MH media, minimal bactericidal concentration (MBC) was recorded as the lowest concentration of the compound at which no colonies were formed or no growth was observed, respectively. For M. marinum, MICs were determined in Middlebrook 7H9 broth (Difco) and MICs were determined after 3 days incubation at 30 °C.
as §2

NRK-52E = assay: Cell toxicity, Alamar blue assay, 24 hours exposure; type: cell-based; details: Rattus norvegicus
Description: (§4) Toxicity was primarily determined by measuring cytotoxicity with the Alamar blue assay. In short, cells (HEK293, NRK-52E and Caco-2) were plated in 96-well plates and cultured overnight. HKI compounds were diluted to concentrations ranging from 0.39 to 500 µg/mL in serum-free medium and added to the cells.
(§5) After exposure, cells were incubated for 24 hours. Experiments were mostly performed by single measurement. […] After 24 hours HKIs were removed from the cells and Alamar blue was added, incubated for 45 minutes and fluorescence was measured on a spectrophotometer. Alamar blue measures the conversion of blue, low fluorescent resazurin into high fluorescent pink resorufin. This conversion can only be made in viable mitochondria in viable cells and therefore this dye provides a measure for cytotoxicity.

HEK293 = assay: as above; type: cell-based; details: Homo sapiens
Description: as §4, §5

M. marinum = assay: Minimal inhibitory concentration (MIC), Middlebrook 7H9 broth, 3 days at 30 °C; type: cell-based, Mycobacterium marinum; details: unit assumed
Description: as §1, with “each plate. The MICs were not determined in duplo/triplicate in the same experiment, however, the MICs of several HKIs were measured in different experiments and no major differences (max. 1x dilution) were found in the MICs between the experiments.” for “each plate.”
as §3, §2

E. coli JW5503 = type: cell-based, Escherichia coli; details: unit assumed
Description: as §1, with “each plate. The MICs were not determined in duplo/triplicate in the same experiment, however, the MICs of several HKIs were measured in different experiments and no major differences (max. 1x dilution) were found in the MICs between the experiments.” for “each plate.”
as §3, §2

S. suis = assay: Minimal inhibitory concentration (MIC), double-dilution in broth, OD600; type: cell-based, Streptococcus suis; details: unit assumed
Description: as §1, with “each plate. The MICs were not determined in duplo/triplicate in the same experiment, however, the MICs of several HKIs were measured in different experiments and no major differences (max. 1x dilution) were found in the MICs between the experiments.” for “each plate.”
as §3, §2

E. faecium Van A = assay: as above; type: cell-based, Enterococcus faecium; details: unit assumed
Description: as §1, with “each plate. The MICs were not determined in duplo/triplicate in the same experiment, however, the MICs of several HKIs were measured in different experiments and no major differences (max. 1x dilution) were found in the MICs between the experiments.” for “each plate.”
as §3, §2

[1] = read-out: IC50 NRK-52E (50 mg/mL stock)
[2] = HEK293, read-out: IC50 HEK293 (50 mg/mL stock)
[3] = HEK293, read-out: IC50 HEK293 (5 mg/mL stock)

SMILES: Oc1cc(OCc2ccccc2)ccc1-c1n[nH]c(C(F)(F)F)c1-c1ccc(Br)cc1 [May-15, 5-benzoxy-2-[4-(4-bromophenyl)-5-(trifluoromethyl)-1∼{H}-pyrazol-3-yl]phenol]
- MIC S. aureus Newman (S. aureus Newman): 1.56 µg/mL (≈ 3.19 µM)
- MIC P. multocida (P. multocida): > 50 µg/mL
- IC50 (NRK-52E; [1]): 5.13 µg/mL (≈ 10.5 µM)
- IC50 (HEK293; [2]): 6.9 µg/mL (≈ 14.1 µM)
- MIC M. marinum (M. marinum): 12.5 µg/mL (≈ 25.5 µM)
- MIC E. coli JW5503 (E. coli JW5503): > 50 µg/mL
- MIC S. suis (S. suis): 3.13 µg/mL (≈ 6.4 µM)
- MIC E. faecium Van A (E. faecium Van A): 3.13 µg/mL (≈ 6.4 µM)

SMILES: COc1ccc(-c2n[nH]c(C(F)(F)F)c2-c2ccc(Cl)cc2)c(O)c1 [May-16, 2-[4-(4-chlorophenyl)-5-(trifluoromethyl)-1∼{H}-pyrazol-3-yl]-5-methoxy-phenol]
- MIC S. aureus Newman (S. aureus Newman): 3.13 µg/mL (≈ 8.49 µM)
- MIC P. multocida (P. multocida): 25 µg/mL (≈ 67.8 µM)
- IC50 (HEK293; [3]): 3.59 µg/mL (≈ 9.74 µM)
- MIC M. marinum (M. marinum): 50 µg/mL (≈ 136 µM)
- MIC E. coli JW5503 (E. coli JW5503): 1.56 µg/mL (≈ 4.23 µM)
- MIC S. suis (S. suis): 3.13 µg/mL (≈ 8.49 µM)

SMILES: COc1ccc(-c2n[nH]c(C(F)(F)F)c2-c2ccccc2)c(O)c1 [May-21, 5-methoxy-2-[4-phenyl-5-(trifluoromethyl)-1∼{H}-pyrazol-3-yl]phenol]
- MIC S. aureus Newman (S. aureus Newman): 12.5 µg/mL (≈ 37.4 µM)
- MIC P. multocida (P. multocida): 50 µg/mL (≈ 150 µM)
- IC50 (NRK-52E; [1]): ~15.6 µg/mL (≈ 46.8 µM)
- IC50 (HEK293; [3]): 6.47 µg/mL (≈ 19.4 µM)
- IC50 (HEK293; [2]): 46.9 µg/mL (≈ 140 µM)
- MIC M. marinum (M. marinum): > 50 µg/mL
- MIC E. coli JW5503 (E. coli JW5503): 3.13 µg/mL (≈ 9.36 µM)
- MIC S. suis (S. suis): 25 µg/mL (≈ 74.8 µM)

SMILES: NNC(=O)COc1ccc(-c2[nH]nc(C(F)(F)F)c2-c2ccccc2)c(O)c1 [May-25, 2-[3-hydroxy-4-[4-phenyl-5-(trifluoromethyl)-1∼{H}-pyrazol-3-yl]phenoxy]acetohy drazide]
- MIC S. aureus Newman (S. aureus Newman): 12.5 µg/mL (≈ 31.9 µM)
- MIC P. multocida (P. multocida): 50 µg/mL (≈ 127 µM)
- IC50 (NRK-52E; [1]): 106 µg/mL (≈ 271 µM)
- IC50 (HEK293; [3]): 27.6 µg/mL (≈ 70.3 µM)
- MIC E. coli JW5503 (E. coli JW5503): 6.25 µg/mL (≈ 15.9 µM)
- MIC E. faecium Van A (E. faecium Van A): 25 µg/mL (≈ 63.7 µM)

SMILES: COc1ccc(-c2c(C(F)(F)F)n[nH]c2-c2ccc(OCc3ccccc3)cc2O)cc1 [May-26, 5-benzoxy-2-[4-(4-methoxyphenyl)-5-(trifluoromethyl)-1∼{H}-pyrazol-3-yl]phenol]
- MIC S. aureus Newman (S. aureus Newman): 1.56 µg/mL (≈ 3.54 µM)
- MIC P. multocida (P. multocida): > 50 µg/mL
- IC50 (NRK-52E; [1]): 9.64 µg/mL (≈ 21.9 µM)
- IC50 (HEK293; [2]): 4.8 µg/mL (≈ 10.9 µM)
- MIC M. marinum (M. marinum): 12.5 µg/mL (≈ 28.4 µM)
- MIC E. coli JW5503 (E. coli JW5503): 3.13 µg/mL (≈ 7.11 µM)
- MIC S. suis (S. suis): 3.13 µg/mL (≈ 7.11 µM)

SMILES: CCOc1ccc(-c2n[nH]c(C)c2-c2ccc(Cl)cc2)c(O)c1 [Sep-22, 2-[4-(4-chlorophenyl)--5-methyl-1∼{H}-pyrazol-3-yl]-5-ethoxy-phenol]
- MIC S. aureus Newman (S. aureus Newman): 50 µg/mL (≈ 152 µM)
- MIC P. multocida (P. multocida): > 50 µg/mL
- IC50 (NRK-52E; [1]): ~1480 µg/mL (≈ 4510 µM)
- IC50 (HEK293; [2]): 23.6 µg/mL (≈ 71.8 µM)
- MIC M. marinum (M. marinum): > 50 µg/mL
- MIC S. suis (S. suis): 50 µg/mL (≈ 152 µM)
- MIC E. faecium Van A (E. faecium Van A): > 50 µg/mL

SMILES: COc1ccc(-c2n[nH]cc2-c2ccc(Cl)cc2)c(O)c1 [Sep-23, 2-[4-(4-chlorophenyl)-1∼{H}-pyrazol-5-yl]-5-methoxy-phenol]
- MIC S. aureus Newman (S. aureus Newman): 25 µg/mL (≈ 83.1 µM)
- MIC P. multocida (P. multocida): > 50 µg/mL
- IC50 (NRK-52E; [1]): 259 µg/mL (≈ 861 µM)
- IC50 (HEK293; [3]): 9.14 µg/mL (≈ 30.4 µM)
- IC50 (HEK293; [2]): 39.7 µg/mL (≈ 132 µM)
- MIC M. marinum (M. marinum): > 50 µg/mL
- MIC S. suis (S. suis): > 50 µg/mL
- MIC E. faecium Van A (E. faecium Van A): > 50 µg/mL

SMILES: NNC(=O)COc1ccc(-c2n[nH]c(C(F)(F)F)c2-c2ccc(Cl)cc2)c(O)c1 [Sep-24, 2-[4-[4-(4-chlorophenyl)-5-(trifluoromethyl)-1∼{H}-pyrazol-3-yl]-3-hydroxy-phenoxy]acetohydr azide]
- MIC S. aureus Newman (S. aureus Newman): 50 µg/mL (≈ 117 µM)
- MIC P. multocida (P. multocida): > 50 µg/mL
- IC50 (NRK-52E; read-out: IC50 NRK-52E (50 mg/mL stock), 50 mg/mL stock): 104 µg/mL (≈ 243 µM)
- IC50 (HEK293; read-out: IC50 HEK293 (50 mg/mL stock), HEK293, 50 mg/mL stock): 119 µg/mL (≈ 279 µM)
- MIC M. marinum (M. marinum): > 50 µg/mL
- MIC S. suis (S. suis): > 50 µg/mL
- MIC E. faecium Van A (E. faecium Van A): 50 µg/mL (≈ 117 µM)

From EP3827825A1, “USE OF 3, 4-DIARYLPYRAZOLES AS ANTIBACTERIAL AGENTS” (Wageningen Universiteit, priority 2019, dated 2021)
